Reference: patent US20250171457A1, “NITROGEN-CONTAINING HETEROCYCLIC COMPOUND HAVING NRF2 ACTIVATION EFFECT” (CHUGAI SEIYAKU KABUSHIKI KAISHA, priority 2022, published 2025)
pEC50: −log10 of the molar value.

test system: Nrf2 transcriptional activity (pARE-Luc reporter) in HepG2 cells; assay: In vitro Nrf2 transcriptional activity measurement by ARE-dependent reporter assay in HepG2 cell; format: cell-based, human; conditions: Homo sapiens; HepG2 cells transfected with pARE-Luc, 4 hours at 37° C.; luciferase activity of Example 1-54 or Example 17-23 at 3.75 μM defined as 100%
Method in brief: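 Luminescence readout (Bright-Glo) after 4 h, 37° C compound exposure of HepG2 cells carrying the ARE-luciferase vector pGL4.37. Each well converted to % response versus reference compound at 3.75 μM, and EC50 derived from dose-response curves.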

**Q.** How did the pEC50 turn out when `COC1CN(C2CC3(C2)CN(c2cc(Cl)c(C(=O)N4COc5c(cccc5-c5cc(N6C7CCC6COC7)c(C(=O)O)cc5F)C4)c(Cl)c2)C3)C1` [Compound 11-1, 4-[3-[2,6-Dichloro-4-[6-(3-methoxyazetidin-1-yl)-2-azaspiro [3.3]heptan-2-yl]benzoyl]-2,4-dihydro-1,3-benzoxazin-8-yl]-5-fluoro-2-(3-oxa-8-azabicyclo [3.2.1]octan-8-yl)benzoic acid] was run?
**A.** 8.44

**Q.** `COC1(C)CN(C2CN(c3cc(Cl)c(C(=O)N4COc5c(cccc5-c5cc(N6C7CCC6COC7)c(C(=O)O)cc5F)C4)c(Cl)c3)C2)C1` [Compound 11-2, 4-[3-[2,6-Dichloro-4-[3-(3-methoxy-3-methylazetidin-1-yl)azetidin-1-yl]benzoyl]-2,4-dihydro-1,3-benzoxazin-8-yl]-5-fluoro-2-(3-oxa-8-azabicyclo [3.2.1]octan-8-yl)benzoic acid] was tested. Which pEC50 did it give?
**A.** 8.38

**Q.** `O=C(O)c1cc(F)c(-c2cccc3c2OCN(C(=O)c2c(Cl)cc(N4CC(n5cccn5)C4)cc2Cl)C3)cc1N1C2CCC1COC2` [Compound 11-3, 4-[3-[2,6-Dichloro-4-(3-pyrazol-1-ylazetidin-1-yl)benzoyl]-2,4-dihydro-1,3-benzoxazin-8-yl]-5-fluoro-2-(3-oxa-8-azabicyclo[3.2.1]octan-8-yl)benzoic acid] was tested. Which pEC50 did it give?
**A.** 8.02

**Q.** With `O=C(O)c1cc(F)c(-c2cccc3c2OCN(C(=O)c2c(Cl)cc(N4CC(N5CC(OC(F)F)C5)C4)cc2Cl)C3)cc1N1C2CCC1COC2` [Compound 11-4, 4-[3-[2,6-Dichloro-4-[3-[3-(difluoromethoxy)azetidin-1-yl]azetidin-1-yl]benzoyl]-2,4-dihydro-1,3-benzoxazin-8-yl]-5-fluoro-2-(3-oxa-8-azabicyclo[3.2.1]octan-8-yl)benzoic acid] as the molecule, how does the pEC50 read?
**A.** 8.70

**Q.** How did the pEC50 turn out when `COC1CN(C2(C)CN(c3cc(Cl)c(C(=O)N4COc5c(cccc5-c5cc(N6C7CCC6COC7)c(C(=O)O)cc5F)C4)c(Cl)c3)C2)C1` [Compound 11-5, 4-[3-[2,6-Dichloro-4-[3-(3-methoxyazetidin-1-yl)-3-methylazetidin-1-yl]benzoyl]-2,4-dihydro-1,3-benzoxazin-8-yl]-5-fluoro-2-(3-oxa-8-azabicyclo[3.2.1]octan-8-yl)benzoic acid] was run?
**A.** 8.70

**Q.** With `CC1(N2CCOCC2)CN(c2cc(Cl)c(C(=O)N3COc4c(cccc4-c4cc(N5C6CCC5COC6)c(C(=O)O)cc4F)C3)c(Cl)c2)C1` [Compound 11-6, 4-[3-[2,6-Dichloro-4-(3-methyl-3-morpholin-4-ylazetidin-1-yl)benzoyl]-2,4-dihydro-1,3-benzoxazin-8-yl]-5-fluoro-2-(3-oxa-8-azabicyclo[3.2.1]octan-8-yl)benzoic acid] as the molecule, how does the pEC50 read?
**A.** 8.62

**Q.** `O=C(O)c1cc(F)c(-c2cccc3c2OCN(C(=O)c2c(Cl)cc(N4CC(N5CC(OC(F)(F)F)C5)C4)cc2Cl)C3)cc1N1C2CCC1COC2` [Compound 11-7, 4-[3-[2,6-Dichloro-4-[3-[3-(trifluoromethoxy)azetidin-1-yl]azetidin-1-yl]benzoyl]-2,4-dihydro-1,3-benzoxazin-8-yl]-5-fluoro-2-(3-oxa-8-azabicyclo [3.2.1]octan-8-yl)benzoic acid] was tested. Which pEC50 did it give?
**A.** 8.28

**Q.** With `O=C(O)c1cc(F)c(-c2cccc3c2OCN(C(=O)c2c(Cl)cc(N4CC(N5CC(F)(F)C5)C4)cc2Cl)C3)cc1N1C2CCC1COC2` [Compound 11-8, 4-[3-[2,6-Dichloro-4-[3-(3,3-difluoroazetidin-1-yl)azetidin-1-yl]benzoyl]-2,4-dihydro-1,3-benzoxazin-8-yl]-5-fluoro-2-(3-oxa-8-azabicyclo[3.2.1]octan-8-yl)benzoic acid] as the molecule, how does the pEC50 read?
**A.** 8.51

**Q.** With `O=C(O)c1cc(F)c(-c2cccc3c2OCN(C(=O)c2c(Cl)cc(N4CC(N5CC(F)C5)C4)cc2Cl)C3)cc1N1C2CCC1COC2` [Compound 11-9, 4-[3-[2,6-Dichloro-4-[3-(3-fluoroazetidin-1-yl)azetidin-1-yl]benzoyl]-2,4-dihydro-1,3-benzoxazin-8-yl]-5-fluoro-2-(3-oxa-8-azabicyclo[3.2.1]octan-8-yl)benzoic acid] as the molecule, how does the pEC50 read?
**A.** 8.57

**Q.** How did the pEC50 turn out when `O=C(O)c1cc(F)c(-c2cccc3c2OCN(C(=O)c2c(Cl)cc(N4CC5(CC(OC6CC6)C5)C4)cc2Cl)C3)cc1N1C2CCC1COC2` [Compound 11-10, 4-[3-[2,6-Dichloro-4-(6-cyclopropyloxy-2-azaspiro[3.3]heptan-2-yl)benzoyl]-2,4-dihydro-1,3-benzoxazin-8-yl]-5-fluoro-2-(3-oxa-8-azabicyclo[3.2.1]octan-8-yl)benzoic acid] was run?
**A.** 8.42

**Q.** How did the pEC50 turn out when `CN(Cc1ccon1)c1cc(-c2cccc3c2OCN(C(=O)c2c(Cl)cc(-c4cnn(C)c4)cc2Cl)C3)c(F)cc1C(=O)O` [Compound 12-1, 4-[3-[2,6-Dichloro-4-(1-methylpyrazol-4-yl)benzoyl]-2,4-dihydro-1,3-benzoxazin-8-yl]-5-fluoro-2-[methyl(1,2-oxazol-3-ylmethyl)amino] benzoic acid] was run?
**A.** 7.96

**Q.** How did the pEC50 turn out when `Cn1cc(-c2cc(Cl)c(C(=O)N3COc4c(cccc4-c4cc(N5CC6CCC(C5)O6)c(C(=O)O)cc4F)C3)c(Cl)c2)cn1` [Compound 12-2, 4-[3-[2,6-Dichloro-4-(1-methylpyrazol-4-yl)benzoyl]-2,4-dihydro-1,3-benzoxazin-8-yl]-5-fluoro-2-(8-oxa-3-azabicyclo[3.2.1]octan-3-yl)benzoic acid] was run?
**A.** 8.59

**Q.** With `CO[C@H]1CN(c2cc(-c3cccc4c3OCN(C(=O)c3c(Cl)cc(-c5cnn(C)c5)cc3Cl)C4)c(F)cc2C(=O)O)[C@H]1C` [Compound 12-3, 4-[3-[2,6-Dichloro-4-(1-methylpyrazol-4-yl)benzoyl]-2,4-dihydro-1,3-benzoxazin-8-yl]-5-fluoro-2-[(2S,3S)-3-methoxy-2-methylazetidin-1-yl]benzoic acid] as the molecule, how does the pEC50 read?
**A.** 8.22

**Q.** How did the pEC50 turn out when `CN(c1cc(-c2cccc3c2OCN(C(=O)c2c(Cl)cc(-c4cnn(C)c4)cc2Cl)C3)c(F)cc1C(=O)O)C1COC1` [Compound 12-4, 4-[3-[2,6-Dichloro-4-(1-methylpyrazol-4-yl)benzoyl]-2,4-dihydro-1,3-benzoxazin-8-yl]-5-fluoro-2-[methyl(oxetan-3-yl)amino]benzoic acid] was run?
**A.** 7.82

**Q.** With `Cn1cc(-c2cc(Cl)c(C(=O)N3COc4c(cccc4-c4cc(N5C6CCC5COC6)c(C(=O)O)cc4F)C3)c(Cl)c2)cn1` [Compound 13-1, 4-[3-[2,6-Dichloro-4-(1-methylpyrazol-4-yl)benzoyl]-2,4-dihydro-1,3-benzoxazin-8-yl]-5-fluoro-2-(3-oxa-8-azabicyclo[3.2.1]octan-8-yl)benzoic acid] as the molecule, how does the pEC50 read?
**A.** 8.15

**Q.** `Cn1cc(-c2cc(Cl)c(C(=O)N3Cc4cccc(-c5ccc(C(=O)O)c(N6CCOCC6)c5)c4CN3)c(Cl)c2)cn1` [Compound 13-2, 4-[2-[2,6-Dichloro-4-(1-methylpyrazol-4-yl)benzoyl]-3,4-dihydro-1H-phthalazin-5-yl]-2-morpholin-4-ylbenzoic acid] was tested. Which pEC50 did it give?
**A.** 7.74

**Q.** `Cc1c(F)c(-c2cccc3c2OCN(C(=O)c2c(Cl)cc(-c4cnn(C)c4)cc2Cl)C3)cc(N2CCOCC2)c1C(=O)O` [Compound 13-3, 4-[3-[2,6-Dichloro-4-(1-methylpyrazol-4-yl)benzoyl]-2,4-dihydro-1,3-benzoxazin-8-yl]-3-fluoro-2-methyl-6-morpholin-4-ylbenzoic acid] was tested. Which pEC50 did it give?
**A.** 8.28

**Q.** With `Cn1cc(-c2cc(Cl)c(C(=O)N3COc4c(cccc4-c4c(F)cc(C(=O)O)c(N5CCOCC5)c4F)C3)c(Cl)c2)cn1` [Compound 13-4, 4-[3-[2,6-Dichloro-4-(1-methylpyrazol-4-yl)benzoyl]-2,4-dihydro-1,3-benzoxazin-8-yl]-3,5-difluoro-2-morpholin-4-ylbenzoic acid] as the molecule, how does the pEC50 read?
**A.** 7.62

**Q.** `Cn1cc(-c2cc(Cl)c(C(=O)N3COc4c(cccc4-c4ccc(C(=O)O)c(N5CCOCC5)c4F)C3)c(Cl)c2)cn1` [Compound 13-5, 4-[3-[2,6-Dichloro-4-(1-methylpyrazol-4-yl)benzoyl]-2,4-dihydro-1,3-benzoxazin-8-yl]-3-fluoro-2-morpholin-4-ylbenzoic acid] was tested. Which pEC50 did it give?
**A.** 7.80

**Q.** `Cn1ncc2c(Cl)c(C(=O)N3COc4c(cccc4-c4ccc(C(=O)O)c(N5CCOCC5)c4)C3)ccc21` [Compound 13-6, 4-[3-(4-Chloro-1-methylindazole-5-carbonyl)-2,4-dihydro-1,3-benzoxazin-8-yl]-2-morpholin-4-ylbenzoic acid] was tested. Which pEC50 did it give?
**A.** 8.12

**Q.** `COc1cc(Cl)c(C(=O)N2COc3c(cccc3-c3cc(N4CCOCC4)c(C(=O)O)cc3F)C2)cc1F` [Compound 13-7, 4-[3-(2-Chloro-5-fluoro-4-methoxybenzoyl)-2,4-dihydro-1,3-benzoxazin-8-yl]-5-fluoro-2-morpholin-4-ylbenzoic acid] was tested. Which pEC50 did it give?
**A.** 8.17

**Q.** How did the pEC50 turn out when `Cn1cc(-c2cc(Cl)c(C(=O)N3COc4c(ccc(F)c4-c4cc(N5CCOCC5)c(C(=O)O)cc4F)C3)c(Cl)c2)cn1` [Compound 13-8, 4-[3-[2,6-Dichloro-4-(1-methylpyrazol-4-yl)benzoyl]-7-fluoro-2,4-dihydro-1,3-benzoxazin-8-yl]-5-fluoro-2-morpholin-4-ylbenzoic acid] was run?
**A.** 8.27

**Q.** `Cn1cc(-c2cc(Cl)c(C(=O)N3COc4c(ccc(F)c4-c4ccc(C(=O)O)c(N5CCOCC5)c4)C3)c(Cl)c2)cn1` [Compound 13-9, 4-[3-[2,6-Dichloro-4-(1-methylpyrazol-4-yl)benzoyl]-7-fluoro-2,4-dihydro-1,3-benzoxazin-8-yl]-2-morpholin-4-ylbenzoic acid] was tested. Which pEC50 did it give?
**A.** 8.28

**Q.** How did the pEC50 turn out when `Cn1cc(-c2cc(Cl)c(C(=O)N3COc4c(cccc4-c4cc(N5CCOCC5)c(C(=O)O)cc4F)C3)cn2)cn1` [Compound 13-10, 4-[3-[4-Chloro-6-(1-methylpyrazol-4-yl)pyridine-3-carbonyl]-2,4-dihydro-1,3-benzoxazin-8-yl]-5-fluoro-2-morpholin-4-ylbenzoic acid] was run?
**A.** 7.77

**Q.** `Cn1ccc2cc(C(=O)N3COc4c(cccc4-c4cc(N5CCOCC5)c(C(=O)O)cc4F)C3)c(Cl)cc21` [Compound 13-11, 4-[3-(6-Chloro-1-methylindole-5-carbonyl)-2,4-dihydro-1,3-benzoxazin-8-yl]-5-fluoro-2-morpholin-4-ylbenzoic acid] was tested. Which pEC50 did it give?
**A.** 8.12
